Laboratory results as given in ChEMBL document CHEMBL5584353, “Design, Synthesis, and Biological Evaluation of Potent EZH2/LSD1 Dual Inhibitors for Prostate Cancer” (J Med Chem, 2024).
Activity calls are given as the source filed them. The rule behind the calls is not given here.

Key:
CWR22R [1] = experiment: Growth inhibition of human 22Rv1 cells incubated for 6 to 7 days by MTS assay; assay type: functional; details: time 6-7 day
[2] = biological target: T1, Lysine-specific histone demethylase 1A (Homo sapiens, UniProt O60341); experiment: Inhibition of LSD1 in human 22Rv1 cells assessed as upregulation of H3K4me2 expression at 1 to 5 uM incubated for 5 days by Western blotting analysis; assay type: cell-based; details: dose 1-5 µM, time 5.0 day
[3] = biological target: T1, Lysine-specific histone demethylase 1A; experiment: Inhibition of LSD1 in human 22Rv1 cells assessed as upregulation of H3K9me2 expression at 1 to 5 uM incubated for 5 days by Western blotting analysis; assay type: cell-based; details: dose 1-5 µM, time 5.0 day
[4] = biological target: T1, Lysine-specific histone demethylase 1A; experiment: Inhibition of LSD1 in human PC-3 cells assessed as upregulation of H3K9me2 expression at 1 to 5 uM incubated for 5 days by Western blotting analysis; assay type: cell-based; details: dose 1-5 µM, time 5.0 day
CWR22R [5] = experiment: Induction of apoptosis in human 22Rv1 cells at 10 uM incubated for 5 days by Annexin V-FITC/PI staining based flow cytometric analysis (reference value: 8.97 %); assay type: functional; details: time 5 day
PC-3 [6] = experiment: Induction of apoptosis in human PC-3 cells at 1 to 10 uM incubated for 5 days by Annexin V-FITC/PI staining based flow cytometric analysis; assay type: functional, cell-based; details: dose 1-10 µM, time 5.0 day
LNCaP [7] = experiment: Induction of apoptosis in human LNCaP cells at 1 to 10 uM incubated for 5 days by Annexin V-FITC/PI staining based flow cytometric analysis; assay type: functional, cell-based; details: dose 1-10 µM, time 5.0 day
CWR22R [8] = experiment: Induction of cell cycle arrest in human 22Rv1 cells assessed as accumulation of cells at G0/G1 phase incubated for 72 hrs by propidium iodide/RNase staining based flow cytometric analysis; assay type: functional
CWR22R [9] = experiment: Induction of apoptosis in human 22Rv1 cells assessed as upregulation of cleaved caspase-3 expression incubated for 48 hr by Western blotting analysis; assay type: functional, cell-based
CWR22R [10] = experiment: Induction of apoptosis in human 22Rv1 cells assessed as upregulation of cleaved PARP expression incubated for 48 hr by Western blotting analysis; assay type: functional, cell-based
CWR22R [11] = experiment: Induction of apoptosis in human 22Rv1 cells assessed as upregulation of p21 expression incubated for 48 hr by Western blotting analysis; assay type: functional, cell-based
CWR22R [12] = experiment: Antimigratory activity in human 22Rv1 cells assessed as upregulation of E-cadherin expression at 3 to 10 uM incubated for 48 hrs by Western blotting analysis; assay type: functional, cell-based; details: dose 3-10 µM
PC-3 [13] = experiment: Antimigratory activity in human PC-3 cells assessed as upregulation of E-cadherin expression at 3 to 10 uM incubated for 48 hrs by Western blotting analysis; assay type: functional, cell-based; details: dose 3-10 µM
PC-3 [14] = experiment: Antimigratory activity in human PC-3 cells assessed as downregulation of E-cadherin expression at 3 to 10 uM incubated for 48 hrs by Western blotting analysis; assay type: functional, cell-based; details: dose 3-10 µM
[15] = Metabolic stability in Sprague-Dawley rat hepatocyte assessed as compound remaining at 20 uM by HPLC-MS/MS analysis; assay type: ADME, cell-based; details: hepatocytes, read-out: Stability
[16] = Metabolic stability in Sprague-Dawley rat hepatocyte assessed as compound remaining at 20 uM incubated for 30 mins by HPLC-MS/MS analysis; assay type: ADME, cell-based; details: hepatocytes, read-out: Stability
[17] = Metabolic stability in Sprague-Dawley rat hepatocyte assessed as compound remaining at 20 uM incubated for 180 mins by HPLC-MS/MS analysis; assay type: ADME, cell-based; details: hepatocytes, read-out: Stability
[18] = Metabolic stability in Sprague-Dawley rat hepatocyte assessed as intrinsic clearance at 20 uM incubated for 60 mins by HPLC-MS/MS analysis; assay type: ADME, cell-based; details: hepatocytes, 1 h
[19] = Half life in BALB/c mouse at 50 mg/kg,iv measured upto 24 hrs by HPLC-MS/MS analysis; assay type: ADME, organism-based; details: in vivo
[20] = Half life in BALB/c mouse at 50 mg/kg,ip measured upto 24 hrs by HPLC-MS/MS analysis; assay type: ADME, organism-based; details: in vivo
[21] = Tmax in BALB/c mouse at 50 mg/kg,ip measured upto 24 hrs by HPLC-MS/MS analysis; assay type: ADME, organism-based; details: in vivo
[22] = Tmax in BALB/c mouse at 50 mg/kg,po measured upto 24 hrs by HPLC-MS/MS analysis; assay type: ADME, organism-based; details: in vivo
[23] = Cmax in BALB/c mouse at 50 mg/kg,ip measured upto 24 hrs by HPLC-MS/MS analysis; assay type: ADME, organism-based; details: in vivo
[24] = Cmax in BALB/c mouse at 50 mg/kg,po measured upto 24 hrs by HPLC-MS/MS analysis; assay type: ADME, organism-based; details: in vivo
[25] = Clearance in BALB/c mouse at 50 mg/kg,iv measured upto 24 hrs by HPLC-MS/MS analysis; assay type: ADME, organism-based; details: in vivo
CWR22R [26] = experiment: Antitumor activity against human 22Rv1 cells xenografted in BALB/c mouse assessed as reduction in tumor weight at 80 mg/kg,ip administrated daily for 31 days; assay type: functional, organism-based; details: time 31.0 day
[27] = Toxicity in BALB/c mouse xenografted with human 22Rv1 cells assessed as heart morphological change at 80 mg/kg,ip administrated daily for 31 days; assay type: organism-based, CWR22R; details: in vivo, 744 h, time 31 day
[28] = biological target: T1, Lysine-specific histone demethylase 1A; experiment: Inhibition of LSD1 in human LNCaP cells assessed as downregulation of AR expression incubated for 48 hrs by Western blotting analysis; assay type: cell-based
[29] = biological target: T1, Lysine-specific histone demethylase 1A; experiment: Inhibition of LSD1 in human 22Rv1 cells assessed as downregulation of AR expression incubated for 48 hrs by Western blotting analysis; assay type: cell-based
[30] = biological target: T1, Lysine-specific histone demethylase 1A; experiment: Inhibition of LSD1 in human LNCaP cells assessed as downregulation of AR-V7 expression at 1 to 20 uM incubated for 48 hrs by Western blotting analysis; assay type: cell-based; details: dose 1-20 µM
LNCaP [31] = experiment: Synergistic antiproliferative activity against human LNCaP cells assessed as inhibition of cell growth at 6.25 to 100 uM incubated for 6 to 7 days in presence of enzalutamide by MTS assay; assay type: functional, cell-based; details: dose 6.25-100 µM, time 6-7 day
U-937 = experiment: Antiproliferative activity against human U-937 cells assessed as inhibition of cell growth incubated for 6 to 7 days by MTS assay; assay type: functional, cell-based; details: time 6-7 day
SUD4 = experiment: Antiproliferative activity against human SU-DHL-4 cells assessed as inhibition of cell growth incubated for 6 to 7 days by MTS assay; assay type: functional, cell-based; details: time 6-7 day
PC-9 = experiment: Antiproliferative activity against human PC-9 cells assessed as inhibition of cell growth incubated for 6 to 7 days by MTS assay; assay type: functional, cell-based; details: time 6-7 day
A549 = experiment: Antiproliferative activity against human A549 cells assessed as inhibition of cell growth incubated for 6 to 7 days by MTS assay; assay type: functional, cell-based; details: time 6-7 day
NCI-H292 = experiment: Antiproliferative activity against human NCI-H292 cells assessed as inhibition of cell growth incubated for 6 to 7 days by MTS assay; assay type: functional, cell-based; details: time 6-7 day
MDA-MB-231 = experiment: Antiproliferative activity against human MDA-MB-231 cells assessed as inhibition of cell growth incubated for 6 to 7 days by MTS assay; assay type: functional, cell-based; details: time 6-7 day
LNCaP [32] = experiment: Antiproliferative activity against human LNCaP cells assessed as inhibition of cell growth incubated for 6 to 7 days by MTS assay; assay type: functional, cell-based; details: time 6-7 day
LNCaP C4-2B = experiment: Antiproliferative activity against human LNCaP C4-2B cells assessed as inhibition of cell growth incubated for 6 to 7 days by MTS assay; assay type: functional, cell-based; details: time 6-7 day
CWR22R [33] = details: Homo sapiens, dose 80.0 mg/kg, route ip, time 31.0 day
CWR22R [34] = details: Homo sapiens, dose 80.0 mg/kg, route ip, time 31.0 day; remark: listed apart in the source

inhibition [2]: Active
inhibition [3]: Active
inhibition [4]: Active
remaining at 20 µM [15]: 100%
remaining at 0.5 h, 20 µM [16]: 93%
remaining at 3 h, 20 µM [17]: 70%
CLH [18]: 0.004 mL/min/mg
half-life [19]: 150 min
half-life [20]: 210 min
Tmax [21]: 2 h
Tmax [22]: 1 h
Cmax [23]: 20600 ng/mL
Cmax [24]: 7410 ng/mL
clearance [25]: 6.67 mL/min/kg
inhibition [28]: Dose-Dependent Effect
inhibition [29]: Dose-Dependent Effect
inhibition [30]: Active
SMILES: CCN(c1cc(-c2ccc([C@@H]3C[C@H]3N(CC3CCOCC3)C(=O)OC(C)(C)C)cc2)cc(C(=O)NCc2c(C)cc(C)[nH]c2=O)c1C)C1CCOCC1 (racemic)
GI50 (CWR22R [1]): 3.96 µM
Activity (CWR22R [5]): 50.06%
Activity (PC-3 [6]): Active
Activity (LNCaP [7]): Active
Activity (CWR22R [8]): Dose-Dependent Effect
Activity (CWR22R [9]): Dose-Dependent Effect
Activity (CWR22R [10]): Dose-Dependent Effect
Activity (CWR22R [11]): Dose-Dependent Effect
Activity (CWR22R [12]): Active
Activity (PC-3 [13]): Active
Activity (PC-3 [14]): Active
Activity (CWR22R [26]): Active
Activity [27]: Non-Toxic
Activity (LNCaP [31]): Active
Activity (U-937): Active
Activity (SUD4): Active
Activity (PC-9): Active
Activity (A549): Active
Activity (NCI-H292): Active
Activity (MDA-MB-231): Active
Activity (LNCaP [32]): Active
Activity (LNCaP C4-2B): Active
inhibition (CWR22R [33]): Active
inhibition (CWR22R [34]): Active
